In article PMC5412445, “ZeGlobalTox: An Innovative Approach to Address Organ Drug Toxicity Using Zebrafish” (International Journal of Molecular Sciences, 2017):
Where two headings read alike, the source gives them in different places.

Columns and labels:
[1] = tested on: wild type zebrafish embryos; test: in vivo; assay type: in vivo; settings: embryos incubated 3 to 96 hpf; 5 logarithmic concentrations 0.1 µM to 1 mM; 1% DMSO
Text: (§1) Several issues were considered when planning the experimental protocol. The main concern was that drug-induced mortality and/or developmental toxicity (teratogenicity) could mask possible organ-toxicities appearing later in development. […] This preliminary assay allowed for the identification of non-mortal/non-teratogenic concentrations—no observed effect concentration (NOEC)—to use in the following assays. The hypothesis is that NOEC could affect organ physiology (organ toxicity), while uncoupled from putative developmental toxicity side-effects affecting organ development or function. Another consideration was to start drug incubations at 96 hours post fertilization (hpf), when the analysed organs are close to or already developed (Figure 1B). The overall aim is to understand the drug impact on organ physiology and function rather than early embryogenesis. The third consideration was to organize the sequential organ evaluation during the experimental and drug incubation time.
(§2) 1% DMSO, which is the constant solvent concentration in all conditions, was used as the negative control.
(§3) Thus, 20 wild type (wt) zebrafish embryos per condition were incubated with tested compounds from 3 to 96 hpf. The test was performed in 5 logarithmic concentrations per drug (from 0.1 µM to 1 mM). Each larva was analysed for mortality, body deformity, edema, tail detachment, pigmentation, heart activity, heart edema, and motor activity. […] DMSO 1% was used as the negative control in all experiments.

zebrafish larvae liver = test: ZeGlobalTox hepatotoxicity: Oil Red O staining (steatosis and yolk lipid accumulation); settings: 132 hpf, 36 h drug incubation at NOEC (paracetamol 2600 µM), DMSO 22.22%
Description: In order to assess drugs producing steatosis and yolk lipid accumulation, and subsequent to the RFP filtered images being acquired, zebrafish larvae were stained with Oil Red O. Larvae and were sorted into steatosis positive or negative, yolk lipid accumulation, or both (see materials and methods).
For the ZeGlobalTox assay, fertilized Tg(cmlc2:GFP; fabp10:RFP; ela31:EGFP) zebrafish embryos were collected in E3 medium (5 mM NaCl, 0.17 mM KCl, 0.33 mM CaCl2, 0.33 mM, MgSO4) in Petri dishes. At 3, 24, and 48 hpf, dishes were observed and all not fertilized, abnormal, or coagulated eggs were discarded. At 96 hpf, 20 larvae per condition were incubated with the NOECs from the different drugs and allowed to develop until 132 hpf at 28.5 °C.
After 36 h of drug incubation (132 hpf), embryos are fixed in 4% paraformaldehyde (158127-500G, Sigma-Aldrich, Saint Louis, MO, USA) for 2–4 h at room temperature (RT) and then are 3× washed with PBS.
In order to detect the presence of steatosis and yolk lipid retention, zebrafish larvae were stained with Oil Red O (O0625-25G, Sigma-Aldrich, Saint Louis, MO, USA) as described in [77]. Briefly, the skin pigment from fixed larvae is removed by incubating with bleaching solution (for 10 mL: 6 mL H2O, 0.25 mL 20× SSC, 0.5 mL formamide, 3.3 mL H2O2) during 20 min at RT. Then, the larvae are 5× washed with PBS. Bleached embryos are first submerged in 85% Propylene glycol (PG) (134368-1L, Sigma-Aldrich, Saint Louis, MO, USA) for 10 min and then in 100% PG for another 10 min before staining them with Oil Red O 0.5% in 100% PG (overnight, at RT and with gentle rocking). Oil Red O stained embryos are washed in 100% PG for 30 min, 50 min in 85% PG, and 40 min in 85% PG with an equal volume of PBS. Finally, embryos are washed 1× with PBS before adding 80% glycerol (G7757-500ML, Sigma-Aldrich, Saint Louis, MO, USA). Bright field images are taken to detect both steatosis and yolk lipid accumulation. […] Yolk lipid retention is considered positive when a red strong signal is observed in the yolk area (Figure 5F).
DMSO 1% treated larvae were used as the negative control group.

humans = settings: cited from earlier work
in vivo = assay type: in vivo; settings: zebrafish, in vivo; mortality; embryos incubated 3 to 96 hpf; 5 logarithmic concentrations 0.1 µM to 1 mM; 1% DMSO
Text: as §1, §2, §3

zebrafish larvae heart = test: ZeGlobalTox cardiotoxicity evaluation (heart video, ZeCardio software); assay type: in vivo, zebrafish (Danio rerio); settings: 100 hpf, 4 h after drug incubation at NOEC (haloperidol 10 µM)
Description: Four cardiac parameters were evaluated to assess whether a compound was cardiotoxic: heart rate (beats per minute, BPM), QTc prolongation, ejection fraction (EJF), and cardiac arrest. […] 1% DMSO was used as the negative control.
Cardiotoxicity evaluation was performed from 96 hpf, when the zebrafish heartbeat is already stabilised, so the analysis might not be altered by unstable beating. Zebrafish hearts were video-recorded at 4 h after drug incubation (100 hpf) and analysed using the ZeCardio® β software (Figure 3A).
After 4 h of drug incubation (100 hpf), zebrafish larvae were anesthetized by immersion in […] tricaine methanesulfonate (A4050, Sigma-Aldrich, Saint Louis, MO, USA)/E3 solution. […] The 1% DMSO treated embryos were used as negative cardiotoxic controls. Embryos were positioned in an agarose based mold to allow their appropriate orientation under the fluorescence stereo microscope (Olympus MVX10). Individual fluorescent hearts were recorded during 60 s each (Figure 6A). Videos were acquired with a high-speed recording camera (Hamamatsu C11440 ORCA-flash 2.8) and analysed with the ZeCardio® β software to extract different cardiac parameters—heart rate, cardiac arrest, QTc prolongation, and Ejection Fraction (EJF) (Figure 6B).
ZeCardio® β software, developed by ZeClinics and currently in β status, provides a graphical user interface (GUI) that facilitates the semi-automatic analysis of living heart videos. Interactive analysis of the different parameters functions as follows: The user draws a line along the heart axis, from ventricle to atrium, to initiate the calculation. […] All lines can be subjected to modification of their angles and lengths.
Heart beat frequency for each chamber is detected and frequencies are presented in the GUI as a mean. A plot distribution is used for assessing beat stability over time (Figure 6F). In the same fashion, chamber specific cardiac arrest is measured as the longest beating pause (Figure 6H). No beating chambers and/or incorrect bpm can be manually flagged when detected.
For calculation of the QTc interval (linearly corrected QT interval), the Framingham formula (QTc = QT + 0.154 (1 − RR)) was adjusted for zebrafish as QTc = QT + 0.154 (2.66 − RR). RR = 6.6 ms/measured bpm is applied (Figure 6G). Finally, the Ejection Fraction, calculated as the maximal dilatation (the diastolic diameter, DD) versus the maximal contraction (systolic diameter, SD) is measured in % as EF% = (DD − SD)/DD*100 (Figure 6G). Computed values for the described parameters were exported in .csv format (Figure 6H).

[2] = known toxicity in humans, ref TOXNET (HSDB), Side effects (EMBL), drugs.com, [22],[30],[31],[34],[35]
[3] = known toxicity in humans, ref TOXNET (HSDB), Side effects (EMBL), drugs.com, ema.europa, [19],[20],[21]
[4] = known toxicity in humans, ref TOXNET (HSDB), Side effects (EMBL), drugs.com, ema.europa, [24],[26],[27],[32],[33]

| Structure (SMILES) | 96 hpf NOEC [1] [µM] | Neurotoxicity (toxicity in humans) (humans; [2]) | Cardiotoxicity (toxicity in humans) (humans; [3]) | Hepatotoxicity (toxicity in humans) (humans; [4]) | LC50 (in vivo) [µM] | 96 hpf LOEC [1] [µM] | further results |
| --- | --- | --- | --- | --- | --- | --- | --- |
| C[C@](N)(Cc1ccc(O)c(O)c1)C(=O)O [Methyldopa, methyldopa] | 1000.00 | Toxic ^1,3 | Safe | Toxic ^1,2,3 | – | – | Percentage of larvae presenting yolk lipid retention (zebrafish larvae liver): 50% |
| CCO [Ethanol] | – | Toxic ^1 | Toxic ^1 | Toxic [26, 27] | – | – | – |
| CCOC(=O)Nc1ccc(NCc2ccc(F)cc2)nc1N [Flupirtine, flupirtine] | 10.00 | Safe | Safe | Toxic ^4 | 136 | 100.00 | – |
| CC(=O)O[C@H]1C[C@@]2(C)[C@@H](C[C@@H](O)[C@H]3[C@@]4(C)CC[C@@H](O)[C@@H](C)[C@@H]4CC[C@@]32C)/C1=C(\CCC=C(C)C)C(=O)O [Fusidic Acid, fusidic acid] | – | Safe | Safe | Toxic [32, 33] | 124 | 100.00 | – |
| O=C(CCCN1CCC(O)(c2ccc(Cl)cc2)CC1)c1ccc(F)cc1 [Haloperidol] | – | Toxic ^1,2,3 | Toxic ^1,2,3 [19, 20, 21] | Safe | – | – | Heart rate (beats per minute) compared to DMSO-only (zebrafish larvae heart): decreased the heart rate; QTc interval compared to DMSO-only (zebrafish larvae heart): QTc interval prolongation |
| OC[C@H]1OC(O)[C@H](O)[C@@H](O)[C@@H]1O (stereo partly drawn) [D-(+)-glucose] | 1000.00 | – | – | – | – | – | Cardiotoxicity (toxicity in humans) (humans; in vivo): Safe; Hepatotoxicity (toxicity in humans) (humans; in vivo): Safe; Neurotoxicity (toxicity in humans) (humans; in vivo): Safe |
| Cc1ccc(C(=O)Nc2ccc(S(=O)(=O)O)c3cc(S(=O)(=O)O)cc(S(=O)(=O)O)c23)cc1NC(=O)c1cccc(NC(=O)Nc2cccc(C(=O)Nc3cc(C(=O)Nc4ccc(S(=O)(=O)O)c5cc(S(=O)(=O)O)cc(S(=O)(=O)O)c45)ccc3C)c2)c1 [Suramin, suramin] | – | Toxic [34, 35] | Safe | Safe | 197 | 1000 | – |
| CN(CCOc1ccc(NS(C)(=O)=O)cc1)CCc1ccc(NS(C)(=O)=O)cc1 [Dofetilide, dofetilide] | – | Safe | Toxic ^1,2,3 | Safe | – | 100.00 | Heart rate (beats per minute) compared to DMSO-only (zebrafish larvae heart): decreased the heart rate; Longest cardiac arrest compared to DMSO-only (zebrafish larvae heart): Longer cardiac arrest |
| COc1cc(N)c(Cl)cc1C(=O)NC1CCN(CCCOc2ccc(F)cc2)CC1OC (stereo not shown) [Cisapride, cisapride] | – | Safe | Toxic ^1,3 | Safe | > 1000 | – | Heart rate (beats per minute) compared to DMSO-only (zebrafish larvae heart): decreased the heart rate; Longest cardiac arrest compared to DMSO-only (zebrafish larvae heart): Longer cardiac arrest |
| O=C(O)c1cn(C2CC2)c2cc(N3CCNCC3)c(F)cc2c1=O [Ciprofloxacin, ciprofloxacin] | – | – | – | – | – | – | Heart rate (beats per minute) compared to DMSO-only (zebrafish larvae heart): increased heart rates; Longest cardiac arrest compared to DMSO-only (zebrafish larvae heart): no differences |
| [Cl-].[Na+] [NaCl, sodium chloride] | 1000.00 | Safe | Safe | Safe | – | – | – |
| CCN(CC)c1ccc(C=O)cc1 [DEAB, 4-diethylaminobenzaldehyde] | 1.00 | – | – | – | 186 | 10.00 | – |
| NC(=O)CC[C@H](N)C(=O)O [L-Glutamine, L-glutamine] | – | Safe | Safe | Safe | – | – | – |
| N[C@@H](CS)C(=O)O [L-Cysteine, L-cysteine] | 1000.00 | – | – | – | – | – | – |
